This is an account of results in patent publication US20160100585A1, “Pesticidal Mixtures” (priority 2012, published 2016).

Holding throughout (assay type): in vivo
Test [1] has as its system Gaeumannomyces graminis. Kind of test: Action against Gaeumannomyces graminis in wheat using pot trials (Use example FG-7). As to conditions: wheat cv. JB Asano, pots, 14 days at 20° C; % of the untreated control (infection 96%); pyraclostrobin 2.5 g ai/100 kg seeds as seed treatment, B. pumilus INR7 10 ml broth per seed as drench. As to the method:
Pyraclostrobin was applied as commercial seed treatment formulation […], Ludwigshafen, Germany). The application of the pyraclostrobin was done as seed treatment and the seeds were treated in the BASF Seed Solutions Technology Center (SSTC) Limburgerhof using a batch lab treater. The respective amount of seeds was placed in the bowl of the treater and the slurry was dosed on the spinning disk. The B. pumilus INR7 were grown in shake flasks and used as fermentation broth with of at least 1×10^12 CFU per ml. This broth was added as a drench solution directly adjacent to the seeds with 10 ml for each seed kernel which makes 50 ml per pot. For the assessment, the plants were evaluated according to a 2 class evaluation (healthy, diseased). Those figures were converted into efficacies in % of the untreated control and the efficacy (E) was calculated as follows using Abbot's formula. Experimental setup was identical to Use example FG-6 unless described below. For the infection, rye kernels inoculated with Gaeumannomyces graminis were used. The trial was sown in 8 cm pots and a mix of peat substrate and sand (ratio 1:4) was used as a substrate. The pots were filled with the substrate and the rye kernels inoculated with Gaeumannomyces graminis were placed directly adjacent to the wheat seeds. […] JB Asano) were sown at a sowing depth of 1.5 cm and then covered with substrate. […]

The subject of test [2] is wheat. Briefly: Improvement of plant height in wheat, pot trials (Use example H-2). Conditions: wheat cv. JB Asano, pots, 14 days at 20° C; untreated control = 100% (13.9 cm); pyraclostrobin 5 g ai/100 kg seeds as seed treatment, B. pumilus INR7 10 ml broth per seed as drench. As for the experimental part:
Pyraclostrobin was applied as commercial seed treatment formulation STAMINA (200 g/L a.i., BASF SE, Ludwigshafen, Germany).
In pot trials in Limburgerhof greenhouses, Bacillus pumilis INR7 was tested in wheat and maize as solo products and in combination with pyraclostrobin to show effects on plant height. The application of the pyraclostrobin was done as seed treatment and the seeds were treated in the BASF Seed Solutions Technology Center (SSTC) Limburgerhof using a batch lab treater. The respective amount of seeds was placed in the bowl of the treater and the slurry was dosed on the spinning disk.
The bacterials were grown in shake flasks and used as fermentation broth with a CFU of at least 1×10^12 per ml. This broth was added as a drench solution directly adjacent to the seeds with 10 ml for each seed kernel which makes 50 ml per pot.
The trial was sown in 8 cm pots and a mix of peat substrate and sand (ratio 1:4) was used as a substrate. […]
For the assessment, the plant height from all plants was measured in cm. […]
The expected relative plant height of active compound combinations were determined using Colby's formula (Colby, S. R. “Calculating synergistic and antagonistic responses of herbicide combinations”, Weeds 15, pp. 20-22, 1967) and compared with the observed efficacies. […]

Test [3] concerns Sclerotinia sclerotiorum. Kind of test: Action against Sclerotinia sclerotiorum in soybean using pot trials (Use example FG-6). As to conditions: soy bean cv. Goriziana, pots, 14 days at 20° C; % of the untreated control (infection level 96%); pyraclostrobin 2.5 g ai/100 kg seeds as seed treatment, B. pumilus INR7 10 ml broth per seed as drench. As to the method: Pyraclostrobin was applied as commercial seed treatment formulation […], Ludwigshafen, Germany). The application of the pyraclostrobin was done as seed treatment and the seeds were treated in the BASF Seed Solutions Technology Center (SSTC) Limburgerhof using a batch lab treater. The respective amount of seeds was placed in the bowl of the treater and the slurry was dosed on the spinning disk. The B. pumilus INR7 were grown in shake flasks and used as fermentation broth with of at least 1×10^12 CFU per ml. This broth was added as a drench solution directly adjacent to the seeds with 10 ml for each seed kernel which makes 50 ml per pot. For the infection, rye kernels inoculated with Sclerotinia sclerotiorum were used. The trial was sown in 8 cm pots and as a substrate a mix of peat substrate and sand in the ratio 1:4 was used. The pots were filled with the substrate and the rye kernels inoculated with Sclerotinia sclerotiorum were placed directly adjacent to the seeds. In each pot 5 soy bean seeds (cv. Goriziana) were sown at a sowing depth of 2 cm, then covered with substrate. For each treatment 5 replications were made. […] For the assessment, the plants were evaluated according to a 2 class evaluation (healthy, diseased). Those figures were converted into efficacies in % of the untreated control and the efficacy (E) was calculated as follows using Abbot's formula.

As for Pyraclostrobin, the figures for the Observed efficacy in test [1] and in test [3] were 5.0% and 16.7%, respectively. For the same substance, the “Observed relative plant height” value in test [2] was 99.4%.
